The text below walks through data of US4098891A, “Certain s-triazines as lipogenesis inhibitors” (Shell Oil Company, priority 1977, dated 1978).

The subject of data set [1] is rats. Put plainly: Rats fed Compound 1 in the diet; lipogenesis by weighing fat pads. The class given is in vivo. The following applies: Compound 1 in diet, compared to control rats.
Data set [2] relates to swine adipose tissue. Kind of data set: Inhibition of lipogenesis (lipid synthesis from glucose-U-14C) in slices of swine adipose tissue in vitro. It counts as cell-based. The conditions noted are these: Sus scrofa, 100 micrograms per milliliter, 2 hours at 37° C, 5% DMSO, read-out: Percent Inhibition of lipogenesis (lipid synthesis) compared to control. From the text: The manner in which they cause this effect is not known with certainty; it is believed that they interfere with the synthesis of fatty acids in the tissues. Their effectiveness for this purpose has been ascertained in one series of tests by immersing samples of swine adipose tissue in a liquid medium containing radioactive glucose and the test chemical, for a period of time, then isolating the lipid from the treated tissue and determining the up-take of the radioactive carbon by means of scintillation counting techniques. These tests were conducted in swine adipose tissue because in swine, the primary site of lipogenesis--i.e., fatty acid synthesis--appears to be adipose tissue.
Described in more detail, the tests were conducted according to the following general procedure:
150 Milligrams of slices of swine adipose tissue were incubated at 37° C for 2 hours with shaking in 3 milliliters of Krebs-Ringer bicarbonate solution containing one half the normal calcium ion concentration, 60 micromoles of glucose, 0.5 micro-Curie of glucose-U^14 C, 300 microunits of insulin, and 5% dimethyl sulfoxide (DMSO). The test compounds were added as suspensions or solutions in DMSO and were present at a concentration of 100 micrograms per milliliter of the incubation mixture.
The incubation was terminated by addition of 0.25 milliliter of 1 N sulfuric acid. The resulting mixture was extracted with a total of 25 milliliters of chloroform:methanol (2:1, v/v). The extracts were washed according to Folch et al. (J. Biol. Chem., 226, 497-509, (1957)), air dried, and counted in a liquid scintillation counter with 15 milliliters of counting fluid (two parts toluene containing 0.4% w/v New England Nuclear Omnifluor; 1 part Triton X-100. The tests were conducted in triplicate and were accompanied by control tests in which all ingredients,proportions and conditions were the same except that no test compound was included. From the data obtained were calculated the percent inhibition of lipid synthesis by the test compound in each case. The data obtained from the tests are set out in Table 1, as the percent inhibition of lipogenesis compared to the results obtained in the control tests wherein only the test compound was omitted.

For data set [3], the system named is whole epididymal fat pads. Kind of data set: Inhibition of incorporation of acetate-1-14C into long chain fatty acids in rat epididymal fat pads. It counts as cell-based, Sprague-Dawley rats. The conditions noted are these: for inhibition at 100 µM: 1 h, 10^-4 M, 60 minutes, acetate-1-14C, read-out: Percent Inhibition of incorporation of acetate into long chain fatty acids. The procedure:
The effect of Compounds 1, 15, 19, 20, 21, 22 and 33 on rats was determined by a modification of the method of D. D. Feller, J. Biol. Chem., 206, 171 (1954): whole epididymal fat pads from 110-150 gram Sprague-Dawley rats were incubated in 4 milliliters of Krebs-Ringer bicarbonate buffer for 30 minutes in an atmosphere of 95% O2 -5% CO2. At the end of the 30 minute period 1 milliliter of Krebs-Ringer bicarbonate buffer containing 8.2 micromoles of acetate (0.1 microcuries of acetate-1-^14 C), 55.0 micromoles of glucose and 50.0 micromoles of succinic acid was added to the incubating mixture and the incubation was continued for 60 minutes more. Test compounds were dissolved in dimethyl sulfoxide (DMSO) and added to the incubating mixture with the fat pad. […] The concentration of the test compound in the liquid medium was 10^-4 M. The incubation was carried out with paired fat pads; the contralateral fat pad from the same rat served as the untreated control.
After incubation, the fat pads were washed in two 5 milliliter aliquots of normal saline and extracted twice with 20 milliliters of chloroform:methanol (2:1) by vigorous shaking for 60 minutes. The extracts were combined and brought to volume with fresh organic solvent in a 50 milliliter volumetric flask containing 1 milliliter of 3N hydrochloric acid. A 5 milliliter aliquot of this mixture was transferred into a 20 milliliter scintillator vial and evaporated to dryness (50° C) to remove traces of acetic acid. To the vials were added 17 ml of scintillator solution consisting of 0.3% diphenyloxazole and 0.01% of 1,4-bis(2,5-phenyloxazolyl)benzene in a solvent of 23% ethanol in toluene. Radioactivity was measured by liquid scintillation counting.
Table II indicates the percent inhibition of incorporation of the acetate into long chain fatty acids--a measure of inhibition of lipogenesis.

The test system of data set [4] is swine. Put plainly: In vivo test in young, growing pigs fed Compound 1; lipogenesis in adipose tissue biopsy slices. The following applies: in feed, approximately 50 mg/kg body weight per day for seven days. The procedure:
The effect of compound 1 on inhibition of lipogenesis in swine was confirmed by an in vivo test in which Compound 1 was included in the feed given to young, growing pigs for seven days, at a dosage of approximately 50 milligrams of Compound 1 per kilogram of the pig's body weight per day. Adipose tissue biopsy samples were taken at days 0, 6, 7 and 13 (one week off the drug) and the effect of the test compound on lipogenesis was determined using tissue slices prepared from the biopsy samples, by the procedure used in the in vitro tests.

SMILES strings stand for the structures.

Regarding `OCCNc1nc(N2CCOCC2)nc(C(Cl)(Cl)Cl)n1` [Compound 1], the “inhibition of lipogenesis, by weighing fat pads on sacrifice” value in data set [1] is “lipogenesis had been inhibited to a significant extent”. The inhibition at 100 µg/mL in data set [2] turned out to be 63%. Moreover, the inhibition at 100 µM in data set [3] turned out to be 57%. Besides, in data set [4], the symptom of toxicity entry is recorded as “No symptom of toxicity due to the test compound was noted”. For the same compound, in data set [4] (day 13 (one week off the drug)), the “effect on lipogenesis in adipose tissue biopsy samples” value is listed as “significantly reduced lipogenesis”.

In the case of `OCCCNc1nc(N2CCOCC2)nc(C(Cl)(Cl)Cl)n1` [Compound 2], the inhibition at 100 µg/mL in data set [2] worked out at 59%.

Take `CC(=O)OCCNc1nc(N2CCOCC2)nc(C(Cl)(Cl)Cl)n1` [Compound 3]: the inhibition at 100 µg/mL in data set [2] was determined as 33%.

As for `CC(O)CNc1nc(N2CCOCC2)nc(C(Cl)(Cl)Cl)n1` (stereo not shown) [Compound 4], the inhibition at 100 µg/mL in data set [2] was found to be 44%.

As for `COCCCNc1nc(NCCO)nc(C(Cl)(Cl)Cl)n1` [Compound 5], the inhibition at 100 µg/mL in data set [2] came to 44%.

For `CC(C)OCCCNc1nc(N(CCO)CCO)nc(C(Cl)(Cl)Cl)n1` [Compound 6], the inhibition at 100 µg/mL in data set [2] is 62%.

Consider `CN(CCO)c1nc(N2CCOCC2)nc(C(Cl)(Cl)Cl)n1` [Compound 7], for which the inhibition at 100 µg/mL in data set [2] was determined as 32%.

Turning to `CN(CCO)c1nc(NCCO)nc(C(Cl)(Cl)Cl)n1` [Compound 8], the inhibition at 100 µg/mL in data set [2] stood at 58%.

Regarding `CN(C)C(=O)OCCNc1nc(N2CCOCC2)nc(C(Cl)(Cl)Cl)n1` [Compound 9], the inhibition at 100 µg/mL in data set [2] worked out at 65%.

As for `COC(=O)CCC(=O)OCCNc1nc(N2CCOCC2)nc(C(Cl)(Cl)Cl)n1` [Compound 10], the inhibition at 100 µg/mL in data set [2] was found to be 43%.

As for `CC(=O)N1CCN(c2nc(NCC(C)O)nc(C(Cl)(Cl)Cl)n2)CC1` (stereo not shown) [Compound 11], the inhibition at 100 µg/mL in data set [2] was 72%.

`CC(O)CNc1nc(N2CCN(C(=O)Nc3ccccc3)CC2)nc(C(Cl)(Cl)Cl)n1` (stereo not shown) [Compound 12]: in data set [2], the inhibition at 100 µg/mL was 29%.

For `CC(O)CNc1nc(N2CCN(C(=O)CCC(=O)O)CC2)nc(C(Cl)(Cl)Cl)n1` (stereo not shown) [Compound 13], in data set [2], the inhibition at 100 µg/mL came to 21%. For the same compound, the “inhibition of acetate incorporation (in words)” value in data set [3] (same procedure as Table II) was “not to inhibit acetate incorporation”.

Consider `CC(=O)NCCNc1nc(N2CCOCC2)nc(C(Cl)(Cl)Cl)n1` [Compound 14], for which, in data set [2], the inhibition at 100 µg/mL amounted to 66%.

As to `O=C(O)CCNc1nc(N2CCOCC2)nc(C(Cl)(Cl)Cl)n1` [Compound 15], the inhibition at 100 µg/mL in data set [2] was determined as 44%. The inhibition at 100 µM in data set [3] stood at 29%.

In the case of `CCNc1nc(NCCC(=O)N2CCOCC2)nc(C(Cl)(Cl)Cl)n1` [Compound 16], in data set [2], the inhibition at 100 µg/mL turned out to be 38%.

As to `CC(C)(CO)Nc1nc(NCCCN2CCOCC2)nc(C(Cl)(Cl)Cl)n1` [Compound 17], the inhibition at 100 µg/mL in data set [2] was found to be 43%.

Regarding `OCCNc1nc(N2CCCC2)nc(C(Cl)(Cl)Cl)n1` [Compound 18], in data set [2], the inhibition at 100 µg/mL was 63%.

In the case of `O=C(NCCO)N1CCN(c2nc(NCCO)nc(C(Cl)(Cl)Cl)n2)CC1` [Compound 19], in data set [2], the inhibition at 100 µg/mL was 75%. The inhibition at 100 µM in data set [3] was 44%.

Take `CN1CCN(c2nc(NCCO)nc(C(Cl)(Cl)Cl)n2)CC1` [Compound 20]: the inhibition at 100 µg/mL in data set [2] came to 27%. The inhibition at 100 µM in data set [3] turned out to be 56%.

As to `OCCNc1nc(N2CCNCC2)nc(C(Cl)(Cl)Cl)n1` [Compound 21], the inhibition at 100 µM in data set [3] turned out to be 65%.

For `CC(O)CNc1nc(N2CCNCC2)nc(C(Cl)(Cl)Cl)n1` (stereo not shown) [Compound 22], the inhibition at 100 µM in data set [3] is 30%.

For `CCNc1nc(N2CCCCC2)nc(C(Cl)(Cl)Cl)n1` [Compound 33], in data set [3], the inhibition at 100 µM is 31%.
